Experimental data taken from patent US6849598B1, “Therapeutic compositions comprising bactericidal/permeability-increasing (BPI) protein products” (XOMA, priority 1995, dated 2005).
Where two headings read alike, the source gives them in different places.

Key:
P. aeruginosa = assay: Antibiotic susceptibility (MIC, Sensititre Trays) with rBPI21 poloxamer formulations; type: cell-based; conditions: for MIC: Pseudomonas aeruginosa, read-out: Minimum Inhibitory Concentration
Description: (§1) The effect of therapeutic compositions of rBPI21 formulated with poloxamer, with or without EDTA, was evaluated on the antibiotic susceptibility of the multiple drug resistant A. baumannii, S. pneumoniae, E. faecium and P. aeruginosa organisms of Example 5. Therapeutic compositions were prepared containing 2 mg/mL rBPI21, (5 mM sodium citrate, 150 mM NaCl) with a 0.2% (w/v) concentration of PLURONIC F68, P103, P104, P105 or P123. The effect on the antibiotic susceptibility of the organisms was determined in Mueller-Hinton Broth plus Cations (CSMHB, Remel), or 40% pooled human serum in CSMHB (Sigma, St. Louis, Mo.), as follows.
(§2) Isolated colonies of the organism from overnight cultures were suspended in Microscan® Inoculum Water to a concentration equivalent to a 0.5 McFarland Standard (approximately 1×10^8 CFU/ml), determined using a Microscan® turbidimeter. Aliquots were transferred to either CSMHB or 40% pooled human serum in CSMHB. Each tube contained either a final concentration of 16 μg/mL rBPI21 or an equivalent volume of control buffer. Minimal inhibitory concentrations (MIC) for each antibiotic tested, i.e. the lowest concentration of antibiotic which inhibits visible growth, were determined using gram-negative (MB and MC) and gram-positive (MA) Sensititre Trays (Radiometer America, Westlake, Ohio), which allow for the rapid and simultaneous survey of a broad spectrum of standard antibiotics. Any other antimicrobial panel systems known in the art, such as the Microscan® (Dade Microscan, Sacramento, Calif.), Pasco (DIFCO, Detroit, Mich.) and Alamar (Alamar, Sacramento, Calif.) systems, may alternatively be used to assay for antibiotic susceptibility.
(§3) Tables 12-15 below display a summary of the results of the antibiotic screening panels, reported for each strain tested as the MIC of the tested antibiotics in the presence of the indicated rBPI21 therapeutic composition. The antibiotic susceptibility standards (interpretation of an MIC as clinically resistant (R), intermediate (I) or susceptible (S) according to NCCLS standards) applicable to the organism tested appear in superscript next to the MIC.

A. baumannii = assay: as above; type: cell-based; conditions: for MIC: Acinetobacter baumannii, read-out: Minimum Inhibitory Concentration
Description: as §1, §2, §3

[1] = CSMHB, 16 μg/mL rBPI21 with F68
[2] = CSMHB, 16 μg/mL rBPI21 with P103
[3] = CSMHB, 16 μg/mL rBPI21 with P104
[4] = CSMHB, 16 μg/mL rBPI21 with P105
[5] = CSMHB, 16 μg/mL rBPI21 with P123
[6] = Serum, 16 μg/mL rBPI21 with F68
[7] = Serum, 16 μg/mL rBPI21 with P103
[8] = Serum, 16 μg/mL rBPI21 with P104
[9] = Serum, 16 μg/mL rBPI21 with P105
[10] = Serum, 16 μg/mL rBPI21 with P123

CO/N=C(\C(=O)N[C@@H]1C(=O)N2C(C(=O)O)=CCS[C@H]12)c1csc(N)n1 [Ceftizoxime]
128 µg/mL: MIC (P. aeruginosa; [3]) | MIC (P. aeruginosa; [5]) | MIC (P. aeruginosa; [8]) | MIC (P. aeruginosa; Serum, Control (no BPI))
32 µg/mL: MIC (P. aeruginosa; [1]) | MIC (P. aeruginosa; [4])
16 µg/mL: MIC (P. aeruginosa; [2]) | MIC (P. aeruginosa; [7]) | MIC (P. aeruginosa; [9]) | MIC (P. aeruginosa; [10])
> 128 µg/mL: MIC (P. aeruginosa; CSMHB, Control (no BPI)) | MIC (P. aeruginosa; [6])
I: susceptibility interpretation of MIC (superscript) (P. aeruginosa; [1]) | susceptibility interpretation of MIC (superscript) (P. aeruginosa; [2]) | susceptibility interpretation of MIC (superscript) (P. aeruginosa; [4]) | susceptibility interpretation of MIC (superscript) (P. aeruginosa; [7]) | susceptibility interpretation of MIC (superscript) (P. aeruginosa; [9]) | susceptibility interpretation of MIC (superscript) (P. aeruginosa; [10])
R: susceptibility interpretation of MIC (superscript) (P. aeruginosa; [3]) | susceptibility interpretation of MIC (superscript) (P. aeruginosa; [5]) | susceptibility interpretation of MIC (superscript) (P. aeruginosa; CSMHB, Control (no BPI)) | susceptibility interpretation of MIC (superscript) (P. aeruginosa; [6]) | susceptibility interpretation of MIC (superscript) (P. aeruginosa; [8]) | susceptibility interpretation of MIC (superscript) (P. aeruginosa; Serum, Control (no BPI))

CO/N=C(\C(=O)N[C@@H]1C(=O)N2C(C(=O)O)=C(CSc3nc(=O)c(=O)[nH]n3C)CS[C@H]12)c1csc(N)n1 [Ceftriaxone]
32 µg/mL: MIC (P. aeruginosa; [1]) | MIC (P. aeruginosa; [4]) | MIC (P. aeruginosa; [10])
16 µg/mL: MIC (P. aeruginosa; [7]) | MIC (P. aeruginosa; [9])
> 128 µg/mL: MIC (P. aeruginosa; CSMHB, Control (no BPI)) | MIC (P. aeruginosa; [6]) | MIC (A. baumannii; [1]) | MIC (A. baumannii; [6]) | MIC (A. baumannii; [7]) | MIC (A. baumannii; [8]) | MIC (A. baumannii; [9]) | MIC (A. baumannii; [10]) | MIC (A. baumannii; Serum, Control (no BPI))
R: susceptibility interpretation of MIC (superscript) (P. aeruginosa; [3]) | susceptibility interpretation of MIC (superscript) (P. aeruginosa; [5]) | susceptibility interpretation of MIC (superscript) (P. aeruginosa; CSMHB, Control (no BPI)) | susceptibility interpretation of MIC (superscript) (P. aeruginosa; [6]) | susceptibility interpretation of MIC (superscript) (P. aeruginosa; [8]) | susceptibility interpretation of MIC (superscript) (P. aeruginosa; Serum, Control (no BPI)) | susceptibility interpretation of MIC (superscript) (A. baumannii; [1]) | susceptibility interpretation of MIC (superscript) (A. baumannii; CSMHB, Control (no BPI)) | susceptibility interpretation of MIC (superscript) (A. baumannii; [6]) | susceptibility interpretation of MIC (superscript) (A. baumannii; [7]) | susceptibility interpretation of MIC (superscript) (A. baumannii; [8]) | susceptibility interpretation of MIC (superscript) (A. baumannii; [9]) | susceptibility interpretation of MIC (superscript) (A. baumannii; [10]) | susceptibility interpretation of MIC (superscript) (A. baumannii; Serum, Control (no BPI))
128 µg/mL: MIC (P. aeruginosa; [3]) | MIC (P. aeruginosa; [5]) | MIC (P. aeruginosa; [8]) | MIC (P. aeruginosa; Serum, Control (no BPI)) | MIC (A. baumannii; CSMHB, Control (no BPI))
I: susceptibility interpretation of MIC (superscript) (P. aeruginosa; [1]) | susceptibility interpretation of MIC (superscript) (P. aeruginosa; [4]) | susceptibility interpretation of MIC (superscript) (P. aeruginosa; [7]) | susceptibility interpretation of MIC (superscript) (P. aeruginosa; [9]) | susceptibility interpretation of MIC (superscript) (P. aeruginosa; [10])
8 µg/mL: MIC (P. aeruginosa; [2])
< 1 µg/mL: MIC (A. baumannii; [2]) | MIC (A. baumannii; [3]) | MIC (A. baumannii; [4]) | MIC (A. baumannii; [5])
S: susceptibility interpretation of MIC (superscript) (P. aeruginosa; [2]) | susceptibility interpretation of MIC (superscript) (A. baumannii; [2]) | susceptibility interpretation of MIC (superscript) (A. baumannii; [3]) | susceptibility interpretation of MIC (superscript) (A. baumannii; [4]) | susceptibility interpretation of MIC (superscript) (A. baumannii; [5])

CC(C)(O/N=C(\C(=O)N[C@@H]1C(=O)N2C(C(=O)[O-])=C(C[n+]3ccccc3)CS[C@H]12)c1csc(N)n1)C(=O)O [Ceftazidime]
32 µg/mL: MIC (A. baumannii; [1]) | MIC (A. baumannii; [6])
S: susceptibility interpretation of MIC (superscript) (A. baumannii; [2]) | susceptibility interpretation of MIC (superscript) (A. baumannii; [3]) | susceptibility interpretation of MIC (superscript) (A. baumannii; [4]) | susceptibility interpretation of MIC (superscript) (A. baumannii; [5])
I: susceptibility interpretation of MIC (superscript) (A. baumannii; CSMHB, Control (no BPI)) | susceptibility interpretation of MIC (superscript) (A. baumannii; [7]) | susceptibility interpretation of MIC (superscript) (A. baumannii; [8]) | susceptibility interpretation of MIC (superscript) (A. baumannii; [9]) | susceptibility interpretation of MIC (superscript) (A. baumannii; [10])
R: susceptibility interpretation of MIC (superscript) (A. baumannii; [1]) | susceptibility interpretation of MIC (superscript) (A. baumannii; [6]) | susceptibility interpretation of MIC (superscript) (A. baumannii; Serum, Control (no BPI))
< 4 µg/mL: MIC (A. baumannii; [2]) | MIC (A. baumannii; [3]) | MIC (A. baumannii; [4]) | MIC (A. baumannii; [5])
> 32 µg/mL: MIC (A. baumannii; Serum, Control (no BPI))
16 µg/mL: MIC (A. baumannii; CSMHB, Control (no BPI)) | MIC (A. baumannii; [7]) | MIC (A. baumannii; [8]) | MIC (A. baumannii; [9]) | MIC (A. baumannii; [10])

O=C(N[C@H](CO)[C@H](O)c1ccc([N+](=O)[O-])cc1)C(Cl)Cl [Chloramphenicol]
R: susceptibility interpretation of MIC (superscript) (P. aeruginosa; [1]) | susceptibility interpretation of MIC (superscript) (P. aeruginosa; [3]) | susceptibility interpretation of MIC (superscript) (P. aeruginosa; CSMHB, Control (no BPI)) | susceptibility interpretation of MIC (superscript) (P. aeruginosa; [6]) | susceptibility interpretation of MIC (superscript) (P. aeruginosa; Serum, Control (no BPI)) | susceptibility interpretation of MIC (superscript) (A. baumannii; CSMHB, Control (no BPI)) | susceptibility interpretation of MIC (superscript) (A. baumannii; [6]) | susceptibility interpretation of MIC (superscript) (A. baumannii; [8]) | susceptibility interpretation of MIC (superscript) (A. baumannii; [9]) | susceptibility interpretation of MIC (superscript) (A. baumannii; [10]) | susceptibility interpretation of MIC (superscript) (A. baumannii; Serum, Control (no BPI))
> 4 µg/mL: MIC (A. baumannii; CSMHB, Control (no BPI)) | MIC (A. baumannii; [6]) | MIC (A. baumannii; [9]) | MIC (A. baumannii; [10]) | MIC (A. baumannii; Serum, Control (no BPI))
16 µg/mL: MIC (P. aeruginosa; [2]) | MIC (P. aeruginosa; [4]) | MIC (P. aeruginosa; [5]) | MIC (P. aeruginosa; [7]) | MIC (P. aeruginosa; [8]) | MIC (P. aeruginosa; [9]) | MIC (P. aeruginosa; [10])
4 µg/mL: MIC (A. baumannii; [8])
2 µg/mL: MIC (A. baumannii; [7])
1 µg/mL: MIC (A. baumannii; [1]) | MIC (A. baumannii; [3])
> 32 µg/mL: MIC (P. aeruginosa; [1]) | MIC (P. aeruginosa; [3]) | MIC (P. aeruginosa; CSMHB, Control (no BPI)) | MIC (P. aeruginosa; [6]) | MIC (P. aeruginosa; Serum, Control (no BPI))
I: susceptibility interpretation of MIC (superscript) (P. aeruginosa; [2]) | susceptibility interpretation of MIC (superscript) (P. aeruginosa; [4]) | susceptibility interpretation of MIC (superscript) (P. aeruginosa; [5]) | susceptibility interpretation of MIC (superscript) (P. aeruginosa; [7]) | susceptibility interpretation of MIC (superscript) (P. aeruginosa; [8]) | susceptibility interpretation of MIC (superscript) (P. aeruginosa; [9]) | susceptibility interpretation of MIC (superscript) (P. aeruginosa; [10])
< 0.5 µg/mL: MIC (A. baumannii; [2]) | MIC (A. baumannii; [4]) | MIC (A. baumannii; [5])
S: susceptibility interpretation of MIC (superscript) (A. baumannii; [1]) | susceptibility interpretation of MIC (superscript) (A. baumannii; [2]) | susceptibility interpretation of MIC (superscript) (A. baumannii; [3]) | susceptibility interpretation of MIC (superscript) (A. baumannii; [4]) | susceptibility interpretation of MIC (superscript) (A. baumannii; [5]) | susceptibility interpretation of MIC (superscript) (A. baumannii; [7])
